In ChEMBL document CHEMBL5154907, “Discovery and Anti-Inflammatory Activity Evaluation of a Novel CDK8 Inhibitor through Upregulation of IL-10 for the Treatment of Inflammatory Bowel Disease In Vivo” (J Med Chem, 2022):
pIC50: −log10 of the molar value. The source made the active and inactive calls. The rule behind the calls is not given here.

Experiments:
[1] = MRT in Sprague-Dawley rat at 5 mg/kg, iv measured for 3 to 1440 mins by HPLC analysis; type: ADME, organism-based; settings: in vivo, time 3-1440 min
[2] = AUC (0 to infinity) in Sprague-Dawley rat at 5 mg/kg, iv measured for 3 to 1440 mins by HPLC analysis; type: ADME, organism-based; settings: in vivo
[3] = Tmax in Sprague-Dawley rat at 10 mg/kg, po measured for 3 to 1440 mins by HPLC analysis; type: ADME, organism-based; settings: in vivo, time 3-1440 min
Mus musculus [4] = experiment: Anti-inflammatory activity in DSS-induced C57BL/6 mouse model of inflammatory bowel disease assessed as increase in IL-10 expression in colon tissue at 5 to 20 mg/kg, po measured after 10 days by western blot analysis; type: functional, organism-based; settings: dose 5-20 mg/kg, time 10.0 day
[5] = biological target: CDK8/Cyclin C (Homo sapiens) (UniProt P49336+P24863); experiment: Inhibition of recombinant full length His tagged human CDK8/Cyclin C expressed in Baculovirus at 200 nM incubated for 60 mins in presence of ATP by ADP-Glo kinase assay
[6] = biological target: T1, Cyclin-dependent kinase 8 (Mus musculus) (UniProt Q8R3L8); experiment: Inhibition of CDK8 in R848-stimulated mouse BMDC cells assessed as downregulation of c-Jun phosphorylation at Ser243 at 1 to 4 uM treated for 2 hrs followed by R848 stimulation for 12 hrs by western blot analysis; type: cell-based; settings: dose 1-4 µM, time 14.0 hrs
T1 sequence (whole entry): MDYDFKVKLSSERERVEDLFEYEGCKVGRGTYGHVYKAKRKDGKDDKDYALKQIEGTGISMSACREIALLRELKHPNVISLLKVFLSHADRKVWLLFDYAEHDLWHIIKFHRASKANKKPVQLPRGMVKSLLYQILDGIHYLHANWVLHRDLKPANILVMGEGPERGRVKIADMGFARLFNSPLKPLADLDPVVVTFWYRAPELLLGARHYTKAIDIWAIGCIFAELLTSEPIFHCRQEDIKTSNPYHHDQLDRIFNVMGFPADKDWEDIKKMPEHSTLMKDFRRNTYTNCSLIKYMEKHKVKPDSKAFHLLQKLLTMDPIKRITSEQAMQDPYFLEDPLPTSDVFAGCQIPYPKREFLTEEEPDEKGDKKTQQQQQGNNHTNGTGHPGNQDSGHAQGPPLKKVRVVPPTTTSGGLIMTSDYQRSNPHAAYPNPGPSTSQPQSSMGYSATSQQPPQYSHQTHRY

[7] = Acute toxicity in 12 hr fasted ICR mouse assessed as effect on lung at 2000 mg/kg, po measured after 7 days by hematoxylin and eosin staining based histopathological analysis; type: organism-based; settings: in vivo, 168 h, time 7 day
Mus musculus [8] = experiment: Anti-inflammatory activity in DSS-induced C57BL/6 mouse model of inflammatory bowel disease assessed as reduction in colitis development by measuring disease activity index score at 5 to 20 mg/kg, po administered measured after 7 days; type: functional, organism-based; settings: dose 5-20 mg/kg, time 7.0 day, DDE = dose-dependent effect
[9] = Cmax in Sprague-Dawley rat at 10 mg/kg, po measured for 3 to 1440 mins by HPLC analysis; type: ADME, organism-based; settings: in vivo
[10] = Acute toxicity in 12 hr fasted ICR mouse assessed as effect on heart at 2000 mg/kg, po measured after 7 days by hematoxylin and eosin staining based histopathological analysis; type: organism-based; settings: in vivo, 168 h, time 7 day
BMDC = experiment: Anti-inflammatory activity against R848-stimulated mouse BMDC cells assessed as upregulation of IL-10 production at 5 uM treated for 24 hrs followed by R848 stimulation for 12 hrs by ELISA method (reference value: 100 %); type: functional; settings: time 36 hrs
Mus musculus [11] = experiment: Anti-inflammatory activity in C57BL/6 mouse model of inflammatory bowel disease assessed as decrease in DSS-induced TNF-alpha levels in serum at 5 to 20 mg/kg, po daily measured after 10 days by ELISA method; type: functional, organism-based; settings: dose 5-20 mg/kg, time 10.0 day
CDK8/Cyclin C = CDK8/Cyclin C (Homo sapiens, UniProt P49336); experiment: Inhibition of recombinant full length His tagged human CDK8/Cyclin C expressed in Baculovirus incubated for 60 mins in presence of ATP by ADP-Glo kinase assay
[12] = biological target: Myeloid differentiation primary response protein MyD88 (Mus musculus) (UniProt P22366); experiment: Inhibition of MyD88 expression in R848-stimulated mouse BMDC cells at 1 to 4 uM treated for 2 hrs followed by R848 stimulation for 12 hrs by western blot analysis; type: cell-based; settings: dose 1-4 µM, time 14.0 hrs, DDE = dose-dependent effect
Mus musculus [13] = experiment: Anti-inflammatory activity in C57BL/6 mouse model of inflammatory bowel disease assessed as decrease in DSS-induced ERK phosphorylation in colon tissue at 5 to 20 mg/kg, po measured after 10 days by western blot analysis; type: functional, organism-based; settings: dose 5-20 mg/kg, time 10.0 day, DDE = dose-dependent effect

Chain of Myeloid differentiation primary response protein MyD88 (Mus musculus) (P22366 whole entry): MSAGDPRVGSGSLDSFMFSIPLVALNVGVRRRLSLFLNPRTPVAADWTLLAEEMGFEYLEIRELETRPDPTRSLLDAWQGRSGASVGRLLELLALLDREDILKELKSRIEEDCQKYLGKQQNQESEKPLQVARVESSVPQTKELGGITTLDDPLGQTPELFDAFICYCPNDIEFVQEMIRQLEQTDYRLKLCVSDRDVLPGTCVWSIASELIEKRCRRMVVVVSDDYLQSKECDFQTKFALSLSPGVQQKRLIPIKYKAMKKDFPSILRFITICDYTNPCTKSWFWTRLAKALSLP
Chain of CDK8/Cyclin C (P49336 whole entry): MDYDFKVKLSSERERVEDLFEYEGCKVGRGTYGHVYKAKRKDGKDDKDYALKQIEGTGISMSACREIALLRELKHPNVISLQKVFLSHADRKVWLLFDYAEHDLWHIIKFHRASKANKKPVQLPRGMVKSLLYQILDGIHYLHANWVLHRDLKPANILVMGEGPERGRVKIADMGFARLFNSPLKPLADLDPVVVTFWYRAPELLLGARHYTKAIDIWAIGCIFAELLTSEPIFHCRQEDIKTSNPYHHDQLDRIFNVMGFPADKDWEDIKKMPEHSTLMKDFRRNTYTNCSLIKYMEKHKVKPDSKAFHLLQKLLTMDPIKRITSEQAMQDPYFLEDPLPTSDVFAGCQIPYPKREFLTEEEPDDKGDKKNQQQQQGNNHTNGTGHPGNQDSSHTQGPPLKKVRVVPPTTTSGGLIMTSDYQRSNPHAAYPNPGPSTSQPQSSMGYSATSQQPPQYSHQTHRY
Chain of CDK8/Cyclin C (P24863 whole entry, further chain): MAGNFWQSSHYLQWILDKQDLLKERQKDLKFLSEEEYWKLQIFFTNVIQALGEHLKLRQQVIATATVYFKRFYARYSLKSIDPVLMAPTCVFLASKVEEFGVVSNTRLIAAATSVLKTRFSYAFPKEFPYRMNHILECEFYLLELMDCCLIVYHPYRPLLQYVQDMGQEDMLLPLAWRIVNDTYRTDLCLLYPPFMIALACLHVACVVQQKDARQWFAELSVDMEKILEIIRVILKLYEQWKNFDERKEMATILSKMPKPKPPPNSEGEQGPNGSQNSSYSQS

Q: With CCc1ccccc1NC(=O)c1cncc(-c2ccc(C(=O)N3CCNCC3)cc2)c1 as the compound, how does the MRT [1] read?
A: Its MRT is 1.97 h.

Q: And the AUC(0-inf) [2]?
A: The AUC(0-inf) was 642 ng·h/mL.

Q: What about the Tmax [3] of the same compound?
A: The Tmax was 0.73 h.

Q: And the Activity (Mus musculus [4])?
A: The Activity was “Active”.

Q: And the inhibition [5]?
A: The inhibition was 85%.

Q: And the inhibition [6]?
A: Its inhibition is “Active”.

Q: And the Activity [7]?
A: The Activity was “Non-Toxic”.

Q: What about the Activity (Mus musculus [8]) of the same compound?
A: The Activity was “Dde”.

Q: And the Cmax [9]?
A: The Cmax was 237 ng/mL.

Q: And the Activity [10]?
A: The Activity was “Non-Toxic”.

Q: And the Activity (BMDC)?
A: The Activity was 88%.

Q: What about the Activity (Mus musculus [11]) of the same compound?
A: Its Activity is “Active”.

Q: And the pIC50 (CDK8/Cyclin C)?
A: The pIC50 was 7.25.

Q: And the inhibition [12]?
A: Its inhibition is “Dde”.

Q: And the Activity (Mus musculus [13])?
A: The Activity was “Dde”.
